Assays:
[1] = Inhibition of Dengue virus 2 RdRp using homopolymeric uridine RNA as template assessed as reduction in RNA synthesis incubated for 10 mins by picogreen fluorescent assay; design: species or system dengue virus type 2
dengue virus type 2 [2] = assay: Antiviral activity against clinical isolates of Dengue virus 2; format: functional, organism-based
dengue virus type 1 [3] = assay: Antiviral activity against clinical isolates of Dengue virus 1; format: functional, organism-based
dengue virus type 4 [4] = assay: Antiviral activity against clinical isolates of Dengue virus 4; format: functional, organism-based
dengue virus type 3 [5] = assay: Antiviral activity against clinical isolates of Dengue virus 3; format: functional, organism-based
[6] = Cytotoxicity against African green monkey Vero E6 cells assessed as reduction in cell viability treated for 3 days measured on day 4 by cell titer-blue fluorescent assay; format: cell-based; conditions: chlorocebus sabaeus
dengue virus type 4 [7] = assay: Antiviral activity against clinical isolates of Dengue virus 4 Martinique 017 infected in African green monkey Vero E6 cells assessed as reduction in viral RNA after 4 days by qRT-PCR method; format: functional, organism-based; conditions: Martinique 017, Vero, 96 h
dengue virus type 3 [8] = assay: Antiviral activity against clinical isolates of Dengue virus 3 Bolivia 4025 infected in African green monkey Vero E6 cells assessed as reduction in viral RNA after 4 days by qRT-PCR method; format: functional, organism-based; conditions: Bolivia 4025, Vero, 96 h
dengue virus type 4 [9] = assay: Antiviral activity against clinical isolates of Dengue virus 4 Dakar HD34460 infected in African green monkey Vero E6 cells assessed as reduction in viral RNA after 4 days by qRT-PCR method; format: functional, organism-based; conditions: 96 h
dengue virus type 1 [10] = assay: Antiviral activity against clinical isolates of Dengue virus 1 Indonesia JKT 1186 TVP 949 infected in African green monkey Vero E6 cells assessed as reduction in viral RNA after 4 days by qRT-PCR method; format: functional, organism-based; conditions: Indonesia JKT 1186 TVP 949, Vero, 96 h
dengue virus type 2 [11] = assay: Antiviral activity against clinical isolates of Dengue virus 2 Martinique H/IMTSSA-MART/98-703 infected in African green monkey Vero E6 cells assessed as reduction in viral RNA after 4 days by qRT-PCR method; format: functional, organism-based; conditions: Martinique H/IMTSSA-MART/98-703, Vero, 96 h

| SMILES | IC50 [1] [nM] | other results |
| --- | --- | --- |
| Brc1cccc(-c2nnc(/C=C/c3ccc(-c4ccccc4)s3)o2)c1 | 53900 |  |
| CN(C)c1ccc(-c2nnc(/C=C/c3ccc(-c4ccccc4)s3)o2)cc1 | 41900 |  |
| O=C(/C=C/c1ccc(-c2ccccc2)s1)Nc1cccc(Cl)c1 |  | EC50 (dengue virus type 2 [2]): 400 nM; EC50 (dengue virus type 1 [3]): 400 nM; EC50 (dengue virus type 4 [4]): 400 nM; EC50 (dengue virus type 3 [5]): 400 nM |
| O=C(/C=C/c1ccc(Br)s1)Nc1ccc(Cl)c(Cl)c1 |  | EC50 (dengue virus type 2 [2]): 40 nM; EC50 (dengue virus type 1 [3]): 40 nM; EC50 (dengue virus type 4 [4]): 40 nM; EC50 (dengue virus type 3 [5]): 40 nM |
| Clc1ccc(-c2nnc(/C=C/c3ccc(-c4ccccc4)s3)o2)cc1Cl | 24300 |  |
| FC(F)(F)Oc1ccc(-c2noc(/C=C/c3ccc(Br)s3)n2)cc1 | 32600 |  |
| COc1ccc(-c2nnc(/C=C/c3ccc(-c4ccccc4)s3)o2)cc1 | 22000 |  |
| C#C[C@@]1(O)[C@H](O)[C@@H](CO)O[C@H]1n1ccc2c(N)ncnc21 |  | CC50 at 72 h [6]: > 100000 nM; EC50 (dengue virus type 4 [7]): 30 nM; EC50 (dengue virus type 3 [8]): 120 nM; EC50 (dengue virus type 4 [9]): 80 nM; EC50 (dengue virus type 1 [10]): 860 nM; EC50 (dengue virus type 2 [11]): 820 nM |

More lines, in order of falling IC50 [1], values ahead:

| IC50 [1] [nM] | SMILES | other results |
| --- | --- | --- |
| 21000 | FC(F)(F)c1ccc(-c2noc(/C=C/c3ccc(Br)s3)n2)cc1 |  |
| 20000 | CN(C)c1ccc(-c2nnc(/C=C/c3ccc(Br)s3)o2)cc1 |  |
| 18800 | C(=C\c1ccc(-c2ccccc2)s1)/c1nnc(-c2ccccc2)o1 |  |
| 17400 | Fc1ccc(-c2nnc(/C=C/c3ccc(-c4ccccc4)s3)o2)cc1 |  |
| 16300 | Fc1cccc(-c2nnc(/C=C/c3ccc(Br)s3)o2)c1 |  |
| 16300 | Fc1ccc(-c2nnc(/C=C/c3ccc(Br)s3)o2)cc1 |  |
| 16100 | Brc1ccc(/C=C/c2nnc(-c3ccccc3)o2)s1 |  |
| 1300 | O=C(/C=C/c1ccc([N+](=O)[O-])s1)Nc1ccc([N+](=O)[O-])cc1O |  |
| 450 | O=c1cc(-c2ccc(Oc3c(O)cc4oc(-c5ccc(O)cc5)cc(=O)c4c3O)cc2)oc2cc(O)cc(O)c12 [HINOKIFLAVONE] |  |
